Experimental data from patent US20070031394A1, “Method of treating neurological disorders” (priority 2005, published 2007).

How the values were obtained:
Type in all cases: in vivo, human
[1] = test system: essential tremor; assay: Riboflavin daily in 15 persons over 50 with essential tremor, Fahn-Tolosa-Marin clinical tremor rating; design: key to Tremor Score After Rx, L Hand / Tremor Score After Rx, Head / Tremor Score After Rx, R Hand / Tremor Score After Rx, Hands: 0=Normal; 1=Slight; 2=Moderately abnormal; 3=Markedly abnormal; 4=Severely abnormal; conditions: for Tremor Score After Rx, Hands: before Rx Hands 1
Description: (§1) 15 persons over the age of 50 were tested, utilizing daily dosages of between 400 and 800 mg of riboflavin. Riboflavin was the only vitamin used for those patients who were on other tremor medications. These patients were continued on them.
Patients were evaluated with arms outstretched, elbows bent and hands near the chin, writing with both hands, drinking holding a cup with either hand, and pouring water with either hand. Evaluation was based on a four-point scale as published by Fahn, Tolosa and Marin, Clinical Rating Scale for Tremor in Parkinson's Disease and Movement Disorders [Williams and Wilkins, 1993].

[2] = Side effects in the 15-person riboflavin test
Description: as §1

[3] = test system: essential tremor; assay: One patient, sequential course of riboflavin with/without coenzyme Q10 and B vitamins, tremor score; design: key to tremor score, Head / tremor score, Right Hand / tremor score, Left Hand: 0=Normal; 1=Slight; 2=Moderately abnormal; 3=Markedly abnormal; 4=Severely abnormal
Description: For one patient, before beginning a course of therapy in accordance with the inventive treatment, that patient's tremor score was Head 0, Right Hand 2, Left Hand 3. Treatment commenced for three months as follows:
The tremor score, after three months of treatment, improved to Head 0, Right Hand 1, Left Hand 2. Treatment then continued for an additional three months with an increase in the daily dosage of Riboflavin to 800 mg. The tremor score was then measured to be Head 0, Right Hand 0, Left Hand 1. […] Moreover, if treatment was resumed, there was a return to reduced tremor levels after 2 to 3 days.

[4] = test system: tremor on action and intention due to Depakote; seizures; assay: One patient with severe epilepsy and Depakote-induced tremor treated with the inventive vitamin therapy; conditions: one patient with severe epilepsy on high dose Depakote
Description: Other conditions that are commonly seen in patients with essential tremor, such as deafness, motion sickness, balance difficulties, and cognitive problems may be benefited by this treatment. Additionally, patients who develop tremors due to the use of medications that cause tremor (such as Depakote and Lithium) may benefit by the use of the inventive vitamin therapy. […] Other neurological conditions, such as epilepsy, when associated with tremor, may be benefited by the inventive vitamin therapy.

[5] = test system: essential tremor; assay: Riboflavin daily in 15 persons over 50 with essential tremor, Fahn-Tolosa-Marin clinical tremor rating; conditions: 200 mg to 1000 mg of riboflavin on a daily basis
[6] = after an additional three months with Riboflavin increased to 800 mg daily, same co-administered vitamins and coenzyme Q10

**Q.** Which results are given for `Cc1cc2nc3c(=O)[nH]c(=O)nc-3n(C[C@H](O)[C@H](O)[C@H](O)CO)c2cc1C` [Riboflavin, riboflavin]?
**A.** Tremor Score After Rx, Hands ([1]; patient # 1, 400 mg daily, 6 wks., concomitant None): Hands 1; Tremor Score After Rx, Head ([1]; patient # 1, 400 mg daily, 6 wks., before Rx Head 2, concomitant tremor medications None): Head 1; Tremor Score After Rx, Hands ([1]; patient # 2, 600 mg daily, 3 mos., concomitant None): Hands 1; Tremor Score After Rx, Head ([1]; patient # 2, 600 mg daily, 3 mos., before Rx Head 2, concomitant None): Head 1; Tremor Score After Rx, Head ([1]; patient # 3, 400 mg daily, 4 wks., before Rx Head 0, concomitant None): Head 0; Tremor Score After Rx, L Hand ([1]; patient # 3, 400 mg daily, 4 wks., before Rx L Hand 4, concomitant None): L Hand 3; Tremor Score After Rx, R Hand ([1]; patient # 3, 400 mg daily, 4 wks., before Rx R Hand 3, concomitant None): R Hand 2; Tremor Score After Rx, Head ([1]; patient # 4, 800 mg daily, 2 wks., before Rx Head 0, concomitant None): Head 0; Tremor Score After Rx, L Hand ([1]; patient # 4, 800 mg daily, 2 wks., before Rx L Hand 3, concomitant None): L Hand 2; Tremor Score After Rx, R Hand ([1]; patient # 4, 800 mg daily, 2 wks., before Rx R Hand 2, concomitant None): R Hand 2; Tremor Score After Rx, Head ([1]; patient # 5, 400 mg daily, 7 mos., before Rx Head 0, concomitant Inderal LA 80 mg.): Head 0; Tremor Score After Rx, L Hand ([1]; patient # 5, 400 mg daily, 7 mos., before Rx L Hand 3, concomitant Inderal LA 80 mg.): L Hand 2; Tremor Score After Rx, R Hand ([1]; patient # 5, 400 mg daily, 7 mos., before Rx R Hand 2, concomitant Inderal LA 80 mg.): R Hand 2; Tremor Score After Rx, Head ([1]; patient # 6, 400 mg daily, 12 mos., before Rx Head 0, concomitant Inderal LA 60): Head 0; Tremor Score After Rx, L Hand ([1]; patient # 6, 400 mg daily, 12 mos., before Rx L Hand 2, concomitant Inderal LA 60): L Hand 1; Tremor Score After Rx, R Hand ([1]; patient # 6, 400 mg daily, 12 mos., before Rx R Hand 2, concomitant Inderal LA 60): R Hand 1; Tremor Score After Rx, Head ([1]; patient # 7, 400 mg daily, 4 wks., before Rx Head 0, concomitant None): Head 0; Tremor Score After Rx, L Hand ([1]; patient # 7, 400 mg daily, 4 wks., before Rx L Hand 2, concomitant None): L Hand 1; Tremor Score After Rx, R Hand ([1]; patient # 7, 400 mg daily, 4 wks., before Rx R Hand 2, concomitant None): R Hand 1; Tremor Score After Rx, Head ([1]; patient # 8, 600 mg daily, 4 wks., before Rx Head 0, concomitant Topamax): Head 0; Tremor Score After Rx, L Hand ([1]; patient # 8, 600 mg daily, 4 wks., before Rx L hand 4, concomitant Topamax): L Hand 3; Tremor Score After Rx, R Hand ([1]; patient # 8, 600 mg daily, 4 wks., before Rx R hand 4, concomitant Topamax): R Hand 3; Tremor Score After Rx, Head ([1]; patient # 9, 400 mg daily, 4 wks., before Rx Head 0, concomitant Mysoline, Inderal and Topamax): Head 0; Tremor Score After Rx, L Hand ([1]; patient # 9, 400 mg daily, 4 wks., before Rx L Hand 4, concomitant Mysoline, Inderal and Topamax): L hand 3; Tremor Score After Rx, R Hand ([1]; patient # 9, 400 mg daily, 4 wks., before Rx R Hand 4, concomitant Mysoline, Inderal and Topamax): R Hand 4; Tremor Score After Rx, Head ([1]; patient # 10, 800 mg daily, 4 mos., before Rx Head 0, concomitant Mysoline, Inderal and Topamax): Head 0; Tremor Score After Rx, L Hand ([1]; patient # 10, 800 mg daily, 4 mos., before Rx L Hand 3, concomitant Mysoline, Inderal and Topamax): L Hand 2; Tremor Score After Rx, R Hand ([1]; patient # 10, 800 mg daily, 4 mos., before Rx R Hand 4, concomitant Mysoline, Inderal and Topamax): R Hand 4; Tremor Score After Rx, Head ([1]; patient # 11, 400 mg daily, 1 year, before Rx Head 2, concomitant None): Head 1; Tremor Score After Rx, L Hand ([1]; patient # 11, 400 mg daily, 1 year, before Rx L Hand 2, concomitant None): L Hand 1; Tremor Score After Rx, R Hand ([1]; patient # 11, 400 mg daily, 1 year, before Rx R Hand 2, concomitant None): R Hand 1; Tremor Score After Rx, Head ([1]; patient # 12, 400 mg daily, 2 wks., before Rx Head not given, concomitant None): Head 2; Tremor Score After Rx, L Hand ([1]; patient # 12, 400 mg daily, 2 wks., before Rx L Hand not given, concomitant None): L Hand 2; Tremor Score After Rx, R Hand ([1]; patient # 12, 400 mg daily, 2 wks., before Rx R hand 2, concomitant None): R Hand 1; Tremor Score After Rx, Head ([1]; patient # 13, 400 mg daily, 3 wks., before Rx Head 0, concomitant None): Head 0; Tremor Score After Rx, L Hand ([1]; patient # 13, 400 mg daily, 3 wks., before Rx L Hand 2, concomitant None): L Hand 1; Tremor Score After Rx, R Hand ([1]; patient # 13, 400 mg daily, 3 wks., before Rx R Hand 2, concomitant None): R Hand 1; Tremor Score After Rx, Head ([1]; patient # 14, 400 mg daily, 5 mos., before Rx Head 0, concomitant None): Head 0; Tremor Score After Rx, L Hand ([1]; patient # 14, 400 mg daily, 5 mos., before Rx L Hand 2, concomitant None): L Hand 1; Tremor Score After Rx, R Hand ([1]; patient # 14, 400 mg daily, 5 mos., before Rx R Hand 2, concomitant None): R Hand 1; Tremor Score After Rx, Head ([1]; patient # 15, 400 mg daily, 1 mo., before Rx Head 0, concomitant None): Head 0; Tremor Score After Rx, R Hand ([1]; patient # 15, 400 mg daily, 1 mo., before Rx R Hand 1, concomitant None): R Hand 1; symptoms after stopping daily intake ([1]; within a few days of stopping the daily high dosage of riboflavin): the symptoms of essential tremor returned; side effect ([2]; general statement on the treatment): bright yellow urine; Side Effects ([2]; patient # 1, 400 mg daily, 6 wks.): None; Side Effects ([2]; patient # 2, 600 mg daily, 3 mos.): None; Side Effects ([2]; patient # 3, 400 mg daily, 4 wks.): None; Side Effects ([2]; patient # 4, 800 mg daily, 2 wks.): None; Side Effects ([2]; patient # 5, 400 mg daily, 7 mos., concomitant Inderal LA 80 mg.): None; Side Effects ([2]; patient # 6, 400 mg daily, 12 mos., concomitant Inderal LA 60): None; Side Effects ([2]; patient # 7, 400 mg daily, 4 wks.): None; Side Effects ([2]; patient # 8, 600 mg daily, 4 wks., concomitant Topamax): None; Side Effects ([2]; patient # 9, 400 mg daily, 4 wks., concomitant Mysoline, Inderal and Topamax): None; Side Effects ([2]; patient # 10, 800 mg daily, 4 mos., concomitant Mysoline, Inderal and Topamax): None; Side Effects ([2]; patient # 11, 400 mg daily, 1 year): None; Side Effects ([2]; patient # 12, 400 mg daily, 2 wks.): None; Side Effects ([2]; patient # 13, 400 mg daily, 3 wks.): None; Side Effects ([2]; patient # 14, 400 mg daily, 5 mos.): None; Side Effects ([2]; patient # 15, 400 mg daily, 1 mo.): None; head and hand findings following treatment ([3]; additional three months with just daily Riboflavin (800 mg) and coenzyme Q10 (1000 mg)): stable head and hand findings; tremor score, Head [3, 6]: 0; tremor score, Left Hand [3, 6]: 1; tremor score, Right Hand [3, 6]: 0; tremor score, Head ([3]; after three months of daily Riboflavin 400 mg + Coenzyme Q10 1000 mg + Thiamine 50 mg + Niacin 50 mg + Pantothenic Acid 50 mg, before Head 0): 0; tremor score, Left Hand ([3]; after three months of daily Riboflavin 400 mg + Coenzyme Q10 1000 mg + Thiamine 50 mg + Niacin 50 mg + Pantothenic Acid 50 mg, before Left Hand 3): 2; tremor score, Right Hand ([3]; after three months of daily Riboflavin 400 mg + Coenzyme Q10 1000 mg + Thiamine 50 mg + Niacin 50 mg + Pantothenic Acid 50 mg, before Right Hand 2): 1; head and hand findings ([3]; thereafter a year with just Riboflavin 800 mg daily): stable head and hand findings; tremor when treatment was missed ([3]; treatment missed for two days or more): prior untreated levels of tremor returned; seizure frequency [4]: decreased; tremor on action and intention [4]: significantly improved; effect on symptoms of essential tremor [5]: ameliorates the symptoms of essential tremor
